Columns and labels:
[1] = test system: calcineurin; experiment: Calcineurin phosphatase assay in T cell extracts (okadaic acid resistant, EGTA-sensitive phosphatase activity); assay type: biochemical, mouse
Protocol: Spleen and lymph nodes were harvested from wild type and mutant mice and were dispersed into single cell suspension. Red blood cells were removed by lysis. The final concentrations were adjusted to 1.5-2.0×10^8 cells suspended in 2 ml of PBS containing 5% fetal calf serum and 4 mM EDTA. The cell suspensions were enriched for T cells using Mouse T Cell Enrichment Column (R&D Systems). T cells were then lysed with lysis buffer containing 50 mM Tris-HCl, pH 7.5, 15% glycerol, 0.1 mM EGTA, 1 mM EDTA, 0.5 mM DTT, […] PMSF, 50 μg/ml soybean trypsin inhibitor, 5 μg/ml aprotinin, 5 μg/ml leupeptin. Aliquots of 8×10^6 cells per 50 μl of lysis buffer were frozen until further analysis.
The phosphatase assay is a modified version of a previously described procedure (Manalan and Klee, 1983; Liu, 1991). The reaction mixture (total volume 60 μl) contained 50 mM MES (pH6.0), 100 mM NaCl, 6 mM Mg(OAc)2, […], […] (Fraction V), […] okadaic acid (Calbiochem), […] [^33P] RII peptide (600 cpm/pmole), and T cell or brain extract. […] of the terminated reaction mixture was applied per well, washed and counted in a Top-Count scintillation counter (Packard Instrument Co.). […]
Residual calcineurin activity, (i.e., okadaic acid resistant and EGTA-sensitive phosphatase activity) was measured in the same CNAα^−/− T cell extracts (Martin and Wiederrecht, in press). […]

[2] = test system: T cells; experiment: Mitogenic stimulation of T cells: proliferation and IL-2 and IL-4 production, drug sensitivity; assay type: cell-based, mouse
Source text: We tested the responses of the wild type and mutant T cells to mitogenic stimulation with phorbol 12-myristate 13 acetate (PMA) plus ionomycin, concanavalin A (ConA), and anti-CD3ε antibodies. All three mitogens induced the CNAα^−/− T cells to proliferate as rapidly as the wild type T-cells. Further, stimulated mutant and wild type T cells produced the same amounts of IL-2 and IL-4 and expressed normal level of IL-2 receptor on the surface. Thus, CNAα^−/− T cells appeared to be functional when stimulated by mitogens in vitro.
We tested the drug sensitivity of the CNAα^−/− T cells. […] CNA^−/− T cells were even more sensitive to these drugs than normal T cells, with a IC50 of 2-7 fold lower than that of the wild type T cells.

## FK506
[1]; CNAα−/− mutant T cell extracts
  inhibition of (residual) calcineurin phosphatase activity: 90-95%
[1]; wild type T cell extracts
  inhibition of calcineurin phosphatase activity: 90-95%
[2]; CNAα−/− T cells
  proliferation and lymphokine production of CNAα−/− T cells, inhibitability: fully inhibitable
[2]; CNAα−/− and wild type T cells stimulated with PMA plus ionomycin, ConA, or αCD3ε antibody
  inhibition of T cells as measured by proliferation and by IL-2 and IL-4 production: inhibited

From US6444870B1, “Methods for assessing the role of calcineurin immunosuppression and neurotoxicity” (President and Fellows of Harvard College, priority 1995, dated 2002)
